Results published in patent US9404087B2, “Insulin producing cells derived from pluripotent stem cells” (Kadimastem Ltd., priority 2010, dated 2016).

Legend:
Assay type in all cases: cell-based
Human insulin mRNA = Human insulin mRNA by RT-qPCR with TBP as reference; conditions: EDTA added during the re-aggregation step
Protocol: Aliquots of the Presort culture and of EpCAM-MACS-separated fractions (from step 7), as well as of re-aggregated clusters (step 8) were analyzed. The number of cells was counted, using the Nucleocounter. After centrifugation at 350×g for 5 minutes, cell pellets were dissolved in M-PER (Mammalian protein extraction reagent, Pierce), typically using 0.1 ml M-PER for 2 million cells, and content of human insulin C-peptide was measured with an ELISA kit (Mercodia, Upsalh, Sweden, ultrasensitive c-peptide kit (minimal detection 5 pM) or Mercodia c-peptide ELISA (minimal detection 90 pM). Samples in M-PER were diluted 3 fold, or more in the kit buffer, and 20 μl of the ⅓ dilution were assayed. Results were expressed per mg total protein (as measured by Bradford assay) and per million cells (counted in a NucleoCounter). Other cell pellets were suspended in 0.7 ml buffer RLT (RNAeasy, Qiagen) per million cells, for RNA extraction. Human insulin mRNA was quantitated by RT-qPCR (Taq-Man, Applied Biosystems, Step One) using the TATA binding protein (TBP) gene as reference. In the same way, proteins and RNA were extracted from entire plates after scraping the cells with a rubber policeman. […]

human insulin C-peptide = experiment: Content of human insulin C-peptide by ELISA in cell fractions; conditions: EDTA added during re-aggregation (Table 2, Expt 3)
Protocol: On day 20, the medium used in step III of Example 2 was modified to adjust the glucose concentration to 5.5 mM (referred to herein as DM7). For isolation of EpCAM^+ cells by magnetic cell sorting (MACS technology, Miltenyi Biotec), a 10 cm-diameter plate was washed with PBS^−/− (no Ca^++, no Mg^++). Cells were then dissociated by treatment with Accutase (Stempro, 2.5 ml/10 cm plate), for 10 minutes at 37° C., and pipetting up and down. The cells were collected in DM7 and an aliquot counted in a NucleoCounter (New Brunswick). Cells were centrifuged at 1,500 rpm (350×g) for 5 minutes and re-suspended in MACS buffer (PBS^−/− with 0.5% BSA, 2 mM EDTA), using 0.3 ml for 50 million cells. Magnetic beads conjugated to anti-EpCAM antibodies (Miltenyi Biotec—CD326 pluripotent stem cells microbeads) were added (0.1 ml beads for 50 million cells). After 30 minutes at 4° C., the cells were washed once in 50 ml of MACS buffer, centrifuged, and finally re-suspended in 0.5 ml MACS buffer (for a maximum of 10^8 cells). […]
Aliquots of the Presort culture and of EpCAM-MACS-separated fractions (from step 7), as well as of re-aggregated clusters (step 8) were analyzed. The number of cells was counted, using the Nucleocounter. […] Human insulin mRNA was quantitated by RT-qPCR (Taq-Man, Applied Biosystems, Step One) using the TATA binding protein (TBP) gene as reference. […]

human ES cells [1] = experiment: Immunofluorescence for Pdx1 positive cells during differentiation
Protocol: On day 6, cells were washed with DMEM/F12, 2 mM glutamine, 1×PS, and medium changed to differentiation medium B1 (DMEM/F12, 2 mM glutamax (Invitrogen), 2 mg/ml BSA, 1% B27 supplement (In Vitrogen) 50 ng/ml human recombinant FGF10 (Preprotech), and 10 μM Forskolin (F-6886 from coleus forskohlii (SIGMA)). The cells were left two days in the same medium.
On day 8, the medium was changed to differentiation medium B2 i.e. medium B1 with addition of 2 μM fresh ATRA (All trans retinoic acid) for five days. Medium was changed every two days.
(§1) On day 13, medium was changed to DMEM/F12, Glutamine 2 mM, PS, 1×ITS supplement (Invitrogen), 2 mg/ml BSA, 5 μg/ml bovine fibronectin (Biological Industries Bet Ha'emek,), Nicotinamide 10 mM (SIGMA) and exendin-4, 5-50 ng/ml. Medium was changed every two days. Cells positive for C-peptide staining start to appear around day 19 of differentiation, but strong immunostaining for C-peptide appears at day 23 and positive islet like structures continue to form till day 50 and persist for at least 70 days. When the cells have differentiated more than 15-20 days, they can be further trypsinized and replated. On the second plating, islet-like structures appear 20-30 days after replating.
Performed as in Example 1. Goat polyclonal anti-human Pdx1/IPF1 (R&D) antibody at 1:100 for 2 hrs, (blocking at 5% BSA in PBS with Triton 0.1%) was used. […]

human ES cells [2] = experiment: Immunostaining for C-peptide and glucagon in islet-like structures
Protocol: as §1
Cultures obtained as in Examples 1 and 2 were further cultured in ITS medium (as detailed in step III of Example 2) and were stained using polyclonal rabbit antibody to C-peptide (Acris) or monoclonal antibody (MAB 1975, Abcam) at dilution 1:200 overnight. To detect glucagon-produing cells, the cultures were also stained with goat polyclonal antibody against Glucagon (Santa Cruz N-17) at the concentration of 1:200 over night. The glucose transporter Glut2 was detected with mouse monoclonal Anti Glut-2 antibodies (R&D systems) used at the concentration of 1:200. […]

In the case of O=C(O)CN(CCN(CC(=O)O)CC(=O)O)CC(=O)O [EDTA, reference compound], the “effect on enrichment of insulin mRNA” value (Human insulin mRNA) is reported as “increased” and the “effect on C-peptide content of re-aggregated cells” value (human insulin C-peptide) is reported as “further increase”.
In the case of “exendin-4: maturation factor added to ITS medium at 5-50 ng/ml”, the “effect on the percentage of Pdx1 positive cells” value (human ES cells [1]; 5-50 ng/ml, with nicotinamide, cell counting (data not shown)) is reported as “positive effect”, the “total amount of cells positive for C-peptide versus control without exendin-4” value (human ES cells [2]; 5 ng/ml, after 60 days of differentiation (FIGS. 9A-B)) is reported as “sufficient to increase” and the “number of C-peptide/glucagon positive areas, 50 ng/ml relative to 5 ng/ml” value (human ES cells [2]; day 60 (not shown)) is reported as 3 time more.
In the case of CC1=C(/C=C/C(C)=C/C=C/C(C)=C/C(=O)O)C(C)(C)CCC1 [retinoic acid, All trans retinoic acid], the “cultured cells expressing Pdx1” value (human ES cells [1]; day 14, two days after end of retinoic acid treatment (2 μM ATRA with FGF10 and forskolin)) is reported as “about 50%”.
